Reference: PubChem BioAssay (NCI)
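Test compounds were applied to cells in 96-well plates for 48 hours at 5 doses. GI50 marks 50% less growth. TGI: total growth inhibition.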

How the values were obtained:
Assay in all cases: NCI anticancer screen, dose series, 48 h
A498 renal = tested on: A498 renal
CAKI-1 renal = tested on: CAKI-1 renal
HCT-116 colon = tested on: HCT-116 colon
HCT-15 colon = tested on: HCT-15 colon
HOP-92 NSCLC = tested on: HOP-92 NSCLC
MCF7 breast = tested on: MCF7 breast
NCI-H226 lung = tested on: NCI-H226 lung
OVCAR-8 ovarian = tested on: OVCAR-8 ovarian
SF-268 CNS = tested on: SF-268 CNS
SK-MEL-5 melanoma = tested on: SK-MEL-5 melanoma

Row | Structure (SMILES) | GI50 (A498 renal) [µM] | TGI (A498 renal) [µM] | GI50 (CAKI-1 renal) [µM] | TGI (CAKI-1 renal) [µM] | GI50 (HCT-116 colon) [µM] | TGI (HCT-116 colon) [µM] | GI50 (HCT-15 colon) [µM] | TGI (HCT-15 colon) [µM] | GI50 (HOP-92 NSCLC) [µM] | TGI (HOP-92 NSCLC) [µM] | GI50 (MCF7 breast) [µM] | TGI (MCF7 breast) [µM] | GI50 (NCI-H226 lung) [µM] | TGI (NCI-H226 lung) [µM] | GI50 (OVCAR-8 ovarian) [µM] | TGI (OVCAR-8 ovarian) [µM] | GI50 (SF-268 CNS) [µM] | TGI (SF-268 CNS) [µM] | GI50 (SK-MEL-5 melanoma) [µM] | TGI (SK-MEL-5 melanoma) [µM]
1 | COc1ccc(Cl)cc1NC(=O)C(Br)C(Br)C(=O)O (stereo not given) | 27.5 | 73.2 | 16.7 | 49.1 | 3.09 | 9.49 | 10.2 | 32.2 | 12.8 | 33.1 | 3.23 | > 47.9 | 13.7 | 35.9 | 9.01 | > 100 | 4.33 | 16.8 | 2.39 | 7.1
2 | O=C(N/N=C/c1ccc([N+](=O)[O-])cc1)c1ccc2nc(-c3ccc(Cl)cc3)[nH]c2c1 | 2.39 | 7.75 | 3.49 | 16.1 | 2.25 | 6.9 | 2.6 | 13 | 0.985 | 7.52 | 0.582 | 2.85 | 5.03 | 31.2 | 2.89 | 13.7 | 4.97 | 24.3 | 2.11 | 4.78
3 | Cc1ccc2c(c1)NC(=O)CC(c1ccccc1)=N2 | – | > 100 | – | > 100 | – | > 100 | – | > 100 | – | > 100 | – | > 100 | – | > 100 | – | > 100 | – | > 100 | – | > 100
4 | COc1ccc(/C=C/C(=O)Oc2cc(O)cc(O)c2)cc1 | – | > 100 | – | 31 | – | 39.5 | – | 65.9 | – | > 100 | – | 71.7 | – | > 100 | – | > 100 | – | 86.5 | – | > 100
5 | O=C(Nc1ccccc1O)c1ccc(Oc2cccc(C(=O)Nc3ccccc3O)c2)cc1 | 0.0225 | 5.06 | 1.91 | 8.86 | 2.84 | 10.4 | 2.52 | 12.3 | 1.57 | 6.07 | 2.57 | 11.5 | 2.06 | 10.8 | 2.03 | 11.2 | 2.91 | 15 | 1.13 | 2.85
6 | O=c1cc(-c2ccccc2)[nH]n1-c1nc2ccccc2[nH]1 | 3.72 | 22.9 | 3.42 | > 100 | 3.12 | > 100 | 3.44 | > 100 | 4.25 | 47.7 | 3.89 | > 100 | 9.49 | > 100 | 4.5 | > 100 | 8.67 | > 100 | 5.18 | 23.4
7 | c1ccc(-c2nc(-c3ccccc3)c(-c3ccccc3)[nH]2)cc1 | – | > 100 | – | > 100 | – | > 100 | – | > 100 | – | > 100 | – | > 100 | – | > 100 | – | > 100 | – | > 100 | – | > 100
8 | C=CCC1(O)c2cccc(NCCO)c2C(=O)c2c(NCCO)cccc21 | > 100 | > 100 | > 100 | > 100 | > 100 | > 100 | > 100 | > 100 | 80.7 | > 100 | > 100 | > 100 | > 100 | > 100 | > 100 | > 100 | > 100 | > 100 | > 100 | > 100
9 | NS(=O)(=O)c1cccc(N=Cc2c(O)[nH]c3ccccc23)c1 | > 25 | > 25 | 13.9 | > 25 | > 25 | > 25 | > 25 | > 25 | > 25 | > 25 | > 25 | > 25 | > 25 | > 25 | > 25 | > 25 | > 25 | > 25 | > 25 | > 25
10 | O=C(O)c1cc(N=Cc2ccccc2O)cc(C(=O)O)c1 | – | > 100 | – | > 100 | – | > 100 | – | > 100 | – | > 100 | – | > 100 | – | > 100 | – | > 100 | – | > 100 | – | > 100
11 | C=C(c1ccc(C(=O)N(C)c2ccccc2N)cc1)C(C)N1C(=O)[C@H]2CCCN2C(=O)c2ccccc21 (stereo not given in full) | 19.2 | 67.5 | 32.8 | > 100 | 19.8 | > 100 | 46.5 | > 100 | 37.2 | > 100 | 23.2 | > 100 | 63.4 | > 100 | 43.7 | > 100 | 25 | > 100 | 31.2 | > 100
